Reference: US20110053951A1, “METHODS FOR TREATING DISORDERS USING NMDA NR2B-SUBTYPE SELECTIVE ANTAGONIST” (EVOTEC NEUROSCIENCES GMBH, priority 2008, published 2011)
Structures can show the parent of a compound that is named as a salt.

How the values were obtained:
[1] = Cerebrospinal fluid (CSF) penetration by lumbar puncture, LC-MS-MS; assay type: in vivo, human; conditions: 8 mg daily for 8 days, six healthy subjects, 3 to 4 hours after dosing on day 8
Protocol: One lumbar puncture per subject was performed on day 8 of treatment (daily dose of 8 mg of bis HCl salt of the compound of formula (I)), in the timeframe of 3 to 4 hours after dosing.
All care was taken to avoid contamination of the collected CSF sample with blood. Thus, only clear CSF was collected, after blood-contaminated liquid has left the cannula. Bloody taps were discarded.
Samples were aliquoted per time point for the measurement of compound of formula (I) as follows: a 0.5 ml CSF sample was aliquoted in empty dry polypropylene tubes from the ≈5 ml CSF collected at each scheduled time point.
CSF samples were stored immediately in an upright position at a temperature of −70° C. or below until shipment. Compound of formula (I) concentrations were measured by a specific and validated LC-MS-MS method. Cerebrospinal fluid (CSF) penetration has been assessed in six healthy subjects receiving 8 mg of bis HCl salt of compound of formula (I) daily for 8 days. […] Such concentrations in the CSF have been extrapolated to estimate the extent of occupancy of the NR2B subtype of the NMDA receptor. […] The selectivity of the compound of formula (I) and salts thereof in combination with the good penetration of the blood brain barrier at well-tolerated dosages according to the present invention provides a therapeutic advantage.

[2] = target: NR2B subtype of the NMDA receptor (Homo sapiens, UniProt Q05586+Q13224); assay: Receptor occupancy estimated by extrapolation from CSF concentrations; assay type: in vivo; conditions: daily dose of 8 mg; extrapolated from CSF concentrations; compared with therapeutic dosages of memantine
NR2B subtype of the NMDA receptor, sequence (Q13224 27-1484, other chains not shown): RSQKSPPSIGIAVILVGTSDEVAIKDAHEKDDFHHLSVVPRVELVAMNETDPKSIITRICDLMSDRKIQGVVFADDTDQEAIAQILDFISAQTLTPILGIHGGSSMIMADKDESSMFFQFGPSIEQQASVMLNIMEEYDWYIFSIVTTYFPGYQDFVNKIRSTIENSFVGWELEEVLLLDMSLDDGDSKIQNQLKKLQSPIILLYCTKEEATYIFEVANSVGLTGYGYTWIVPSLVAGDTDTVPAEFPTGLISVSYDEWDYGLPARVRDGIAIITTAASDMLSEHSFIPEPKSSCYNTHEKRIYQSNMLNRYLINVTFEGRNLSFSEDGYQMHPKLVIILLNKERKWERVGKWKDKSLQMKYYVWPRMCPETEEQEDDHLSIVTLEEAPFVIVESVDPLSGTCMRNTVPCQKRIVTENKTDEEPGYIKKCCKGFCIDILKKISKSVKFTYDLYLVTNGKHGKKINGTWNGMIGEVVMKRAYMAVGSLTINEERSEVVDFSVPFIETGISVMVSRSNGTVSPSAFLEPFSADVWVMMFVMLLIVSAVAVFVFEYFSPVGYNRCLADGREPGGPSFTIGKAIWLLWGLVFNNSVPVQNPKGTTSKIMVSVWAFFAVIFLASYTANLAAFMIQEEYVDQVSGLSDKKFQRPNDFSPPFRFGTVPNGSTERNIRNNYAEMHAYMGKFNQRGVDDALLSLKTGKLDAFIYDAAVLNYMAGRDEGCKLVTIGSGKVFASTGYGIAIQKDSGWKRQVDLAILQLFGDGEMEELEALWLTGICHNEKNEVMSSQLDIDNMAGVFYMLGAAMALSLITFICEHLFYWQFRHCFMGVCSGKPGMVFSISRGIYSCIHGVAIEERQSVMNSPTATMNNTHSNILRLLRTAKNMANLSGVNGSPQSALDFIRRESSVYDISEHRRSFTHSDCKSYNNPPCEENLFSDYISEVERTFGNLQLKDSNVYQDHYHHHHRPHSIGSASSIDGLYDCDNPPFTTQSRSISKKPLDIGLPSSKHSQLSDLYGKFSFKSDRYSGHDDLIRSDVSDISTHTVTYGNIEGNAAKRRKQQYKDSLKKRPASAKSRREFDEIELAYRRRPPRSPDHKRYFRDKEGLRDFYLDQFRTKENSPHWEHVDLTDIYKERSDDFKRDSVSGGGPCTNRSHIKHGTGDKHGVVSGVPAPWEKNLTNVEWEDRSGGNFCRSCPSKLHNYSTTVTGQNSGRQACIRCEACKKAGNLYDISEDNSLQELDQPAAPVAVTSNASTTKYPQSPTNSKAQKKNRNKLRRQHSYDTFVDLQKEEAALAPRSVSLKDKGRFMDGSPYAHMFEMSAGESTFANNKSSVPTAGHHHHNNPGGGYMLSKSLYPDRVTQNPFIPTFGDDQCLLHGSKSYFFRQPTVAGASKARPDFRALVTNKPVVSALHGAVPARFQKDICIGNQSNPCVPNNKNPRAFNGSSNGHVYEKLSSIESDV
Protocol: CSF samples were stored immediately in an upright position at a temperature of −70° C. or below until shipment. Compound of formula (I) concentrations were measured by a specific and validated LC-MS-MS method. […] Such concentrations in the CSF have been extrapolated to estimate the extent of occupancy of the NR2B subtype of the NMDA receptor.

healthy volunteers [3] = assay: Continuous arterial spin labeling (CASL) perfusion MRI of regional cerebral blood flow (rCBF); assay type: in vivo, human; conditions: for increase in rCBF: anterior cingulate cluster
Protocol: (§1) A double blind, placebo controlled study was conducted in 19 healthy volunteers to investigate the role of NMDA receptor NR2B subunit selective antagonism on cognitive functions and neurophysiology as measured with magnetic resonance imaging (MRI). This study utilized functional MRI to determine changes in regional cerebral blood flow (rCBF) and the putative modulation of neural networks during performance of cognitive tasks by the subjects after they were administered the bis HCl salt of compound of formula (I).
The 19 healthy male volunteers who participated in this study were scanned using functional magnetic resonance imaging (fMRI) whilst performing cognitive tasks (including the PAL task described below in more detail) designed to measure associative learning, sustained attention, and episodic memory. These tasks were repeated on three study days two hours prior to the fMRI session. On these three separate occasions, the participants received a capsule containing either placebo (microcrystalline cellulose), 8 mg, or 15 mg of the bis HCl salt of compound of formula (I) such that all treatments were given to all participants. During the fMRI session, the tasks were presented in a randomized order to each subject; however, the order assigned was then maintained across all three study sessions. Additional practice on the tasks was offered to the participants before entering the scanner, and the instructions were repeated prior to each task being performed whilst in the scanner.
Images were acquired on a 1.5T GE Excite HDx system (General Electric, Milwaukee, Wis.). For all tasks a gradient-echo EPI sequence was used with TE=40 ms, FOV=24 cm, and in-plane resolution of 3.75 mm^2 (matrix=64^2). Thirty-eight axial slices with thickness 3 mm (0.3 mm gap) approximately parallel to the AC/PC line were obtained. For the paired associates learning task TR=3000 ms. In addition, a high-resolution image was acquired using single shot EPI with TR=3000 ms, TE=40 ms, FOV=24 cm, 3 mm slice thickness with 0.3 mm gap, matrix=128^2, and 43 slices. This image was used to determine coregistration parameters.
Whole-brain resting perfusion images were acquired with a continuous arterial spin labeling (CASL) sequence consisting of a pseudo-continuous flow-driven, adiabatic inversion scheme and a continuous 3D fast spin echo (FSE) sequence with an interleaved stack of variable density spirals acquisition (Alsop and Detre (1998) Multisection cerebral blood flow MR imaging with continuous arterial spin labeling. Radiology 208: 410-6). CASL perfusion images are able to delineate grey and white matter and provide high resolution quantification of rCBF across the whole brain. Because of the genuine 3-dimensional encoding and readout of this multi-shot technique, and the refocusing of magnetic susceptibility induced signal distortions, the maps of whole brain rCBF obtainable with this technique are of good image quality and exquisite spatial resolution.
For the perfusion images, brain volumes were first normalized into a standard anatomical space (International Consortium on Brain Mapping—ICBM), using affine registration and non-linear transformations. Normalization utilized a single image to which all three CASL sessions were coregistered in order to reduce the likelihood of preprocessing-dependent differences between the drug and placebo session images. All images were spatially smoothed using a Gaussian kernel full-width at half-maximum filter of 6×6×6 mm to improve signal-to-noise ratio and allow for inherent functional and gyral variability across participants.
Image preprocessing and analysis were carried out using Statistical Parametric Mapping software developed by the Functional Imaging Laboratory, UCL, (SPM v5.0, www.fillon.ucl.ac.ulc/spm/)., running under Matlab 7.0.1, and a blood oxygen level dependency (BOLD) was determined. BOLD changes to cognitive tasks represent changes of neuronal activities of respective brain areas.

healthy volunteers [4] = assay: fMRI (BOLD) during Paired Associates Learning (PAL) task; assay type: in vivo, human
Protocol: as §1
The 19 healthy male volunteers who participated in this study were scanned using functional magnetic resonance imaging (fMRI) whilst performing cognitive tasks (including the PAL task described below in more detail) designed to measure associative learning, sustained attention, and episodic memory. These tasks were repeated on three study days two hours prior to the fMRI session. […]
Image preprocessing and analysis were carried out using Statistical Parametric Mapping software developed by the Functional Imaging Laboratory, UCL, (SPM v5.0, www.fillon.ucl.ac.ulc/spm/)., running under Matlab 7.0.1, and a blood oxygen level dependency (BOLD) was determined. […]

[5] = system: healthy young and elderly subjects; assay: Double-blind, placebo-controlled, single and multiple oral dose safety and tolerability study; assay type: in vivo, human
Protocol: A double-blind, placebo-controlled, randomized, single, and multiple oral dose study was conducted in order to determine safety and tolerability of the bis HCl salt of compound of formula (I) in healthy young and elderly subjects. The study was conducted in two parts.
Part 1 comprised an ascending single dose, sequential group study in 48 young male subjects, incorporating a two-period crossover arm to investigate the effect of food. Part 2 comprised an ascending multiple dose, sequential group study in 24 young male subjects and an ascending single and multiple dose, sequential group study in 18 elderly subjects (10 males and 8 females) subjects. On each dosing occasion, the subjects received a single capsule containing the appropriate amount of either the bis HCl salt of compound of formula (I) or microcrystalline cellulose. Treatments were administered orally with 240 ml water while the subjects were in a standing position.
The condition of each subject was monitored throughout the study. In addition, any signs and symptoms were observed and elicited at least once a day by open questioning, such as “How have you been feeling since you were last asked?” Subjects were also encouraged to report spontaneously any adverse events during the study.
Any adverse events or remedial actions were recorded. The nature, time of onset, duration, and severity were documented. Any clinically significant abnormalities found during the course of the study were followed up until they returned to normal or could be clinically explained.
A serious adverse event is defined as any untoward medical occurrence that at any dose either results in death, is life-threatening, requires inpatient hospitalization, or prolongs existing hospitalization, results in persistent or significant disability/incapacity, and/or results in a congenital anomaly/birth defect.
Important medical events that may not result in death, be life-threatening, or require hospitalization may be considered to be serious adverse events when, based upon appropriate medical judgment, they may jeopardize the subject or may require medical or surgical intervention to prevent one of the above-described outcomes.

[6] = throughout the study, young and elderly subjects

| Structure (SMILES) | CSF concentration relative to plasma concentration [1] | receptor occupancy [2] | decreases in rCBF (healthy volunteers [3]; 8 mg and 15 mg oral) | areas of increased/decreased perfusion (healthy volunteers [3]; 8 mg oral vs placebo) | increase in rCBF (healthy volunteers [3]; 8 mg oral) [%] | rCBF, direct comparison with placebo (healthy volunteers [3]; 15 mg oral, anterior cingulate) | increase in rCBF (healthy volunteers [3]; 15 mg oral) [%] | rCBF normalized to global signal, main effect of drug (healthy volunteers [3]; averaged over 8 mg and 15 mg vs placebo, genu of the anterior cingulate cortex) | dose response relationship of perfusion between 8 mg and 15 mg (healthy volunteers [3]; formal comparison across the entire brain volume, ignoring placebo) | global perfusion (whole brain) (healthy volunteers [3]; placebo, 8 mg and 15 mg oral, CASL perfusion maps) | regional effects on absolute perfusion (healthy volunteers [3]; placebo, 8 mg and 15 mg, threshold p=0.05 corrected across whole brain) | functional performance of subjects in PAL (healthy volunteers [4]; 8 mg and 15 mg oral, healthy young subjects) | BOLD signal during retrieval in memory retrieval network (healthy volunteers [4]; placebo, 8 mg, 15 mg oral, PAL task, preliminary analysis) | tolerability ([5]; elderly males and females, multiple oral doses (over 8 days) of up to 3 mg twice daily) | tolerability ([5]; elderly males and females, single oral doses of up to 4 mg) | vital signs and electrocardiogram (ECG) parameters ([5]; following single or multiple dosing in young or elderly subjects) | incidence of adverse events [5, 6] | serious or severe adverse events [5, 6] | tolerability ([5]; young males, multiple oral doses (over 8 days) of up to 8 mg once daily) | tolerability ([5]; young males, single oral doses of up to 15 mg (including 2, 5 and 10 mg)) |
| --- | --- | --- | --- | --- | --- | --- | --- | --- | --- | --- | --- | --- | --- | --- | --- | --- | --- | --- | --- | --- |
| Cc1nccn1Cc1cc(-c2ccc(F)c(C(F)F)c2)cnn1 [compound of formula (I), 5-(3-difluoromethyl-4-fluoro-phenyl)-3-(2-methyl-imidazol-1-yl-methyl)-pyridazine] | largely corresponds to the free (unbound) plasma concentrations | greater than that, which corresponds to currently used therapeutic dosages of memantine |  |  |  |  |  |  |  |  |  |  |  |  |  |  |  |  |  |  |
| Cc1nccn1Cc1cc(-c2ccc(F)c(C(F)F)c2)cnn1 [bis HCl salt of compound of formula (I), 5-(3-difluoromethyl-4-fluoro-phenyl)-3-(2-methyl-imidazol-1-yl-methyl)-pyridazine] |  |  | no clusters of voxels showing significant decreases in rCBF | No statistically significant changes | 17.5 | highly significant cluster of increased rCBF | 17.9 | increased signal | No changes were seen | no difference across the three conditions studied | no significant clusters where signal differed | unaffected | dose dependent increases in BOLD signal | very well tolerated | very well tolerated | no apparent trends | low incidence of mainly mild adverse events | no serious or severe adverse events | very well tolerated | very well tolerated |
